target: T1, human PAH with the R408W mutation (Homo sapiens, UniProt P00439, R408W); experiment: Cell Based Phenylalanine Flux Assay; details: A375 cells expressing human R408W PAH; 24 hrs compound incubation; 13C-Tyrosine by LC-MS; average where tested multiple times; read-out: AC50
T1 construct: expressed in transfected cells
T1 sequence (P00439 1-452 R408W): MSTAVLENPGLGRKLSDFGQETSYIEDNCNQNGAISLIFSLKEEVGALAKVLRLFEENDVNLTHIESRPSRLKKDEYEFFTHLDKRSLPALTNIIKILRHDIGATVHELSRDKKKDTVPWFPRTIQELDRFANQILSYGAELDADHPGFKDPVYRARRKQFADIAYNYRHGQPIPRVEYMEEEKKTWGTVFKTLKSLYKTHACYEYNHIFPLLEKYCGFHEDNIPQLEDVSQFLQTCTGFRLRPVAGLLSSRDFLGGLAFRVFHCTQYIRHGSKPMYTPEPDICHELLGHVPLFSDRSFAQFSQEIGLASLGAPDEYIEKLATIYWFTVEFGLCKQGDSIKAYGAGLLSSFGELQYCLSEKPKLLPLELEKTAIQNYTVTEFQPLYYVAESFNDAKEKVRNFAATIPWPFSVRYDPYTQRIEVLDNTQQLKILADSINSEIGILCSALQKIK

AC50 [nM] | Compound
> 5000 | O=C(CCC1CC1)N1CCc2[nH]cnc2[C@@H]1c1nc2ccc(F)cc2[nH]1 [Example 961, (R)-3-cyclopropyl-1-(4-(6-fluoro-1H-benzo[d]imidazol-2-yl)-6,7-dihydro-1H-imidazo[4,5-c]pyridin-5(4H)-yl)propan-1-one]
< 500 | O=C(CCC1CC1)N1CCc2[nH]cnc2[C@H]1c1nc2ccc(F)cc2[nH]1 [Example 962, (S)-3-cyclopropyl-1-(4-(6-fluoro-1H-benzo[d]imidazol-2-yl)-6,7-dihydro-1H-imidazo[4,5-c]pyridin-5(4H)-yl)propan-1-one]
1000 to 5000 | O=C(CC1CC1)N1CCc2[nH]cnc2[C@@H]1c1nc2ccc(F)cc2[nH]1 [Example 963, (R)-2-cyclopropyl-1-(4-(6-fluoro-1H-benzo[d]imidazol-2-yl)-6,7-dihydro-1H-imidazo[4,5-c]pyridin-5(4H)-yl)ethanone]
500 to 1000 | O=C(CC1CC1)N1CCc2[nH]cnc2[C@H]1c1nc2ccc(F)cc2[nH]1 [Example 964, (S)-2-cyclopropyl-1-(4-(6-fluoro-1H-benzo[d]imidazol-2-yl)-6,7-dihydro-1H-imidazo[4,5-c]pyridin-5(4H)-yl)ethanone]
1000 to 5000 | O=C(c1cnn2ccc(Cl)cc12)N1CCc2[nH]cnc2[C@H]1c1nc2ccc(Br)cc2[nH]1 [Example 965, (S)-(4-(6-bromo-1H-benzo[d]imidazol-2-yl)-6,7-dihydro-1H-imidazo[4,5-c]pyridin-5(4H)-yl)(5-chloropyrazolo[1,5-a]pyridin-3-yl)methanone]
500 to 1000 | O=C(c1cnn2cc(F)ccc12)N1CCc2[nH]cnc2[C@H]1c1nc2ccc(Br)cc2[nH]1 [Example 967, (S)-(4-(6-bromo-1H-benzo[d]imidazol-2-yl)-6,7-dihydro-1H-imidazo[4,5-c]pyridin-5(4H)-yl)(6-fluoropyrazolo[1,5-a]pyridin-3-yl)methanone]
500 to 1000 | O=C(c1ccon1)N1CCc2[nH]cnc2[C@H]1c1nc2ccc(Cl)cc2[nH]1 [Example 969, (S)-(4-(6-chloro-1H-benzo[d]imidazol-2-yl)-6,7-dihydro-1H-imidazo[4,5-c]pyridin-5(4H)-yl)(isoxazol-3-yl)methanone]
< 500 | Brc1ccc2nc([C@@H]3c4nc[nH]c4CCN3Cc3nccs3)[nH]c2c1 [Example 971, (S)-2-((4-(6-bromo-1H-benzo[d]imidazol-2-yl)-6,7-dihydro-1H-imidazo[4,5-c]pyridin-5(4H)-yl)methyl)thiazole]
< 500 | Fc1ccc2nc([C@@H]3c4nc[nH]c4CCN3Cc3nccs3)[nH]c2c1 [Example 974, (S)-2-((4-(6-fluoro-1H-benzo[d]imidazol-2-yl)-6,7-dihydro-1H-imidazo[4,5-c]pyridin-5(4H)-yl)methyl)thiazole]
500 to 1000 | O=C(c1ncc(Cl)s1)N1CCc2[nH]cnc2[C@H]1c1nc2ccc(Br)cc2[nH]1 [Example 975, (S)-(4-(6-bromo-1H-benzo[d]imidazol-2-yl)-6,7-dihydro-1H-imidazo[4,5-c]pyridin-5(4H)-yl)(5-chlorothiazol-2-yl)methanone]
> 5000 | O=C(c1ncc(Cl)s1)N1CCc2[nH]cnc2[C@@H]1c1nc2ccc(Br)cc2[nH]1 [Example 976, (R)-(4-(6-bromo-1H-benzo[d]imidazol-2-yl)-6,7-dihydro-1H-imidazo[4,5-c]pyridin-5(4H)-yl)(5-chlorothiazol-2-yl)methanone]
500 to 1000 | O=C(c1nncs1)N1CCc2[nH]cnc2[C@H]1c1nc2ccc(Br)cc2[nH]1 [Example 977, (S)-(4-(6-bromo-1H-benzo[d]imidazol-2-yl)-6,7-dihydro-1H-imidazo[4,5-c]pyridin-5(4H)-yl)(1,3,4-thiadiazol-2-yl)methanone]
> 5000 | O=C(c1nncs1)N1CCc2[nH]cnc2[C@@H]1c1nc2ccc(Br)cc2[nH]1 [Example 978, (R)-(4-(6-bromo-1H-benzo[d]imidazol-2-yl)-6,7-dihydro-1H-imidazo[4,5-c]pyridin-5(4H)-yl)(1,3,4-thiadiazol-2-yl)methanone]
500 to 1000 | O=C(c1nccs1)N1CCc2[nH]cnc2[C@H]1c1nc2cccc(Cl)c2[nH]1 [Example 984, (S)-(4-(7-chloro-1H-benzo[d]imidazol-2-yl)-6,7-dihydro-1H-imidazo[4,5-c]pyridin-5(4H)-yl)(thiazol-2-yl)methanone]
500 to 1000 | O=C(c1cnn2ccccc12)N1CCc2[nH]cnc2[C@H]1c1nc2cccc(Cl)c2[nH]1 [Example 986, (S)-(4-(7-chloro-1H-benzo[d]imidazol-2-yl)-6,7-dihydro-1H-imidazo[4,5-c]pyridin-5(4H)-yl)(pyrazolo[1,5-a]pyridin-3-yl)methanone]
> 5000 | c1ccc2[nH]c([C@H]3c4nc[nH]c4CCN3c3nc4ccccc4o3)nc2c1 [Example 987, (R)-2-(4-(1H-benzo[d]imidazol-2-yl)-6,7-dihydro-1H-imidazo[4,5-c]pyridin-5(4H)-yl)benzo[d]oxazole]
< 500 | c1ccc2[nH]c([C@@H]3c4nc[nH]c4CCN3c3nc4ccccc4o3)nc2c1 [Example 988, (S)-2-(4-(1H-benzo[d]imidazol-2-yl)-6,7-dihydro-1H-imidazo[4,5-c]pyridin-5(4H)-yl)benzo[d]oxazole]
500 to 1000 | O=C(c1cnn2ccccc12)N1CCc2[nH]cnc2[C@H]1c1nc2cccc(F)c2[nH]1 [Example 990, (S)-(4-(7-fluoro-1H-benzo[d]imidazol-2-yl)-6,7-dihydro-1H-imidazo[4,5-c]pyridin-5(4H)-yl)(pyrazolo[1,5-a]pyridin-3-yl)methanone]

More lines, now with the values behind:

Compound | AC50 [nM]
O=C(C1CC1)N1CCc2[nH]cnc2[C@@H]1c1nc2ccc(Cl)cc2[nH]1 [Example 959, (R)-(4-(6-chloro-1H-benzo[d]imidazol-2-yl)-6,7-dihydro-1H-imidazo[4,5-c]pyridin-5(4H)-yl)(cyclopropyl)methanone] | > 5000
O=C(C1CC1)N1CCc2[nH]cnc2[C@H]1c1nc2ccc(Cl)cc2[nH]1 [Example 960, (S)-(4-(6-chloro-1H-benzo[d]imidazol-2-yl)-6,7-dihydro-1H-imidazo[4,5-c]pyridin-5(4H)-yl)(cyclopropyl)methanone] | 1000 to 5000
O=C(c1cnn2ccc(Cl)cc12)N1CCc2[nH]cnc2[C@@H]1c1nc2ccc(Br)cc2[nH]1 [Example 966, (R)-(4-(6-bromo-1H-benzo[d]imidazol-2-yl)-6,7-dihydro-1H-imidazo[4,5-c]pyridin-5(4H)-yl)(5-chloropyrazolo[1,5-a]pyridin-3-yl)methanone] | > 5000
O=C(c1ccon1)N1CCc2[nH]cnc2[C@@H]1c1nc2ccc(Cl)cc2[nH]1 [Example 970, (R)-(4-(6-chloro-1H-benzo[d]imidazol-2-yl)-6,7-dihydro-1H-imidazo[4,5-c]pyridin-5(4H)-yl)(isoxazol-3-yl)methanone] | 1000 to 5000
Clc1cnc(CN2CCc3[nH]cnc3[C@@H]2c2nc3ccccc3[nH]2)s1 [Example 979, (R)-2-((4-(1H-benzo[d]imidazol-2-yl)-6,7-dihydro-1H-imidazo[4,5-c]pyridin-5(4H)-yl)methyl)-5-chlorothiazole] | > 5000
Clc1cnc(CN2CCc3[nH]cnc3[C@H]2c2nc3ccccc3[nH]2)s1 [Example 980, (S)-2-((4-(1H-benzo[d]imidazol-2-yl)-6,7-dihydro-1H-imidazo[4,5-c]pyridin-5(4H)-yl)methyl)-5-chlorothiazole] | 500 to 1000
O=C(c1ccon1)N1CCc2[nH]cnc2[C@H]1c1nc2ccc(Br)cc2[nH]1 [Example 981, (S)-(4-(6-bromo-1H-benzo[d]imidazol-2-yl)-6,7-dihydro-1H-imidazo[4,5-c]pyridin-5(4H)-yl)(isoxazol-3-yl)methanone] | < 500
O=C(c1ccon1)N1CCc2[nH]cnc2[C@@H]1c1nc2ccc(Br)cc2[nH]1 [Example 982, (R)-(4-(6-bromo-1H-benzo[d]imidazol-2-yl)-6,7-dihydro-1H-imidazo[4,5-c]pyridin-5(4H)-yl)(isoxazol-3-yl)methanone] | 1000 to 5000
O=C(c1nccs1)N1CCc2[nH]cnc2[C@@H]1c1nc2cccc(Cl)c2[nH]1 [Example 983, (R)-(4-(7-chloro-1H-benzo[d]imidazol-2-yl)-6,7-dihydro-1H-imidazo[4,5-c]pyridin-5(4H)-yl)(thiazol-2-yl)methanone] | > 5000
O=C(c1cnn2ccccc12)N1CCc2[nH]cnc2[C@@H]1c1nc2cccc(Cl)c2[nH]1 [Example 985, (R)-(4-(7-chloro-1H-benzo[d]imidazol-2-yl)-6,7-dihydro-1H-imidazo[4,5-c]pyridin-5(4H)-yl)(pyrazolo[1,5-a]pyridin-3-yl)methanone] | > 5000
O=C(c1cnc(-c2ccccn2)s1)N1CCc2[nH]cnc2[C@H]1c1nc2ccccc2[nH]1 [Example 989, (S)-(4-(1H-benzo[d]imidazol-2-yl)-6,7-dihydro-1H-imidazo[4,5-c]pyridin-5(4H)-yl)(2-(pyridin-2-yl)thiazol-5-yl)methanone] | 500 to 1000
O=C(c1cnn2ccccc12)N1CCc2[nH]cnc2[C@@H]1c1nc2cccc(F)c2[nH]1 [Example 991, (R)-(4-(7-fluoro-1H-benzo[d]imidazol-2-yl)-6,7-dihydro-1H-imidazo[4,5-c]pyridin-5(4H)-yl)(pyrazolo[1,5-a]pyridin-3-yl)methanone] | > 5000
Cc1ncoc1C(=O)N1CCc2[nH]cnc2[C@@H]1c1nc2ccccc2[nH]1 [Example 992, (R)-(4-(1H-benzo[d]imidazol-2-yl)-6,7-dihydro-1H-imidazo[4,5-c]pyridin-5(4H)-yl)(4-methyloxazol-5-yl)methanone] | > 5000
